According to patent US5650412A, “HIV protease inhibitors useful for the treatment of AIDS” (Merck & Co., Inc., priority 1995, dated 1997):
pIC50: −log10 of the molar value.

Assays:
[1] = target: T1, HIV protease (Human immunodeficiency virus type 1 group M subtype B, UniProt P04585); assay: Inhibition of Microbial Expressed HIV Protease (protease expressed in Escherichia coli, peptide substrate, HPLC of products); assay type: biochemical; settings: 50 mM Na acetate, pH 5.5, 30° C., 1 hour
T1 construct: made in house; host or cells: Escherichia coli
Protocol: Assay for Inhibition of Microbial Expressed HIV Protease
Inhibition studies of the reaction of the protease expressed in Eschericia coli with a peptide substrate [Val-Ser-Gln-Asn-(betanaphyl)Ala-Pro-Ile-Val, 0.5 mg/mL at the time the reaction is initiated] were in 50 mM Na acetate, pH 5.5, at 30° C. for 1 hour. Various concentrations of inhibitor in […] DMSO were added to […] of the peptide solution in water. The reaction is initiated by the addition of […] of 0.33 nM protease (0.11 ng) in a solution of 0.133M Na acetate pH 5.5 and 0.1% bovine serum albumin. The reaction was quenched with […] of 5% phosphoric acid. Products of the reaction were separated by HPLC (VYDAC wide pore 5 cm C-18 reverse phase, acetonitrile gradient, 0.1% phosphoric acid). The extent of inhibition of the reaction was determined from the peak heights of the products.

[2] = system: HIV-1; assay: Cell spread assay: inhibition of the spread of HIV in MT-4 T-lymphoid cell culture; assay type: cell-based; settings: Human immunodeficiency virus 1, 72 h; MT-4 T-lymphoid cells, HIV-1 wild-type, 3 days with inhibitor, p24 accumulation; read-out: CIC95 (inhibitor concentration which reduced the spread of infection by at least 95%)
Protocol: Inhibition of the spread of HIV in cell culture was measured according to Nunberg, J. H. et al., J. Virol. 65, 4887 (1991). In this assay, MT-4 T-lymphoid cells were infected with HIV-1 (wild-type, unless otherwise indicated) by using a predetermined inoculum, and cultures were incubated for 24 h. At this time, ≤1% of the cells were positive by indirect immunofluorescence. Cells were then extensively washed and distributed into 96-well culture dishes. Serial twofold dilutions of inhibitor were added to the wells, and cultures were continued for 3 additional days. At 4 days postinfection, 100% of the cells in control cultures were infected. HIV-1 p24 accumulation was directly correlated with virus spread. The cell culture inhibitory concentration was defined as the inhibitor concentration in nanomoles/liter which reduced the spread of infection by at least 95%, or CIC95. The CIC95 for compound A is 25 nM.
INHIBITION OF VIRUS SPREAD
A. Preparation of HIV-infected MT-4 cell Suspension […]
The concentration of HIV p24 antigen is measured by an enzyme immunoassay, described as follows. Aliquots of p24 antigen to be measured are added to microwells coated with a monoclonal antibody specific for HIV core antigen. […]

COc1cc(CN2CCN(C[C@@H](O)[C@H](Cc3ccccc3)NC(=O)O[C@@H]3CCS(=O)(=O)[C@@H]3C(C)C)[C@H](C(=O)NC(C)(C)C)C2)cc2c1OCO2 [Compound A, N-tert-butyl-1-[2'(R)-hydroxy-4'-phenyl-3'(S)-[3"(R)-[1'",1'"-dioxo-2'"(R)-methylethyl]tetrahydrothienyloxycarbonylamino]butyl]-4-[(3'-methoxy-4',5'-methylenedioxyphenyl)methyl]piperazine-2(S)-carboxamide]
pIC50 [1]: ~8.92
IC95 [2]: 25 nM
